In patent publication US11767289B2, “Methods and compositions for pest control” (VMI Foundation, priority 2010, dated 2023):

Experiment: Solvent for extracting tyramides from dissected tissue
Assay type: physicochemical
Settings: extraction of dissected tissue
Description: Mature male […] (winged male sexuals) were used in all experiments. Maturity could only be determined upon dissection and determination of whether or not the male's testes were degenerated. This is the key indicator of maturity. See Ball and Vinson, Int. J. Insect Morphol. Embryol. 13:283-294 (1984) for a description and figure of the fire ant male genitalia. Males were discarded if their testes were not degenerated. Dissection of the male reproductive system was carried out in a drop of water. The entire system included pairs of degenerated testes, seminal vesicle, accessory glands, and the single external genitalia. After dissection of the entire system the three sections were further dissected: A) degenerated testes and seminal vesicle; B) accessory glands; and C) external genitalia. […]

## CC(=O)NCCc1ccc(O)cc1 [Compound 1, acetyl tyramide]
  suitability of methylene chloride as solvent: poor solvent
